# Results as given in patent US20200360391A1, “Medicinal Composition for Treating Intractable Heart Disease” (Osaka University, priority 2016, published 2020).
# Read-outs that look alike come from different tables or passages of the source.
# Experiments:
# [1] = system: rat coronary artery complete ischemia model; test: Model of ischemia (MI) by rat coronary artery complete ligation (Tests 1 and 2): echocardiography, body weight; conditions: for Action on left ventricular systolic function: MI Test 1, 28-day repeated oral administration b.i.d., NOAEL-based doses; for Body weight / % FS: value of change compared with the value on Day 1 / EF: value of change compared with the value on Day 1: MI Test 1, NOAEL doses, mean ± S.D.
# [2] = cited from earlier work; for Cases with side effects (including laboratory test value abnormality): share of cases evaluated for safety
# [3] = system: rats; conditions: cited from earlier work; for No-observed-adverse-effect level: rats
# [4] = system: mouse model of pulmonary embolism; conditions: oral pre-administration, cited from earlier work
# [5] = system: rats; test: Repeated oral administration toxicity study in rats (dose-setting basis); conditions: mg/kg twice per day, oral preparation
# Text: The dose-setting basis for the doses of the test substances used in pharmacological tests is as described below.
# [6] = system: spontaneous dilated cardiomyopathy (J2N-k) hamster model; test: Spontaneous dilated cardiomyopathy (J2N-k) hamster model, 8-week administration from 20 weeks of age (Tests 1-3): echocardiography, body weight; conditions: for Cardiac function (EF, FS %) actual measured value and/or amount of change compared with control, 8 W value / Cardiac function (EF, FS %) actual measured value or change rate compared with control, 4 W value / Cardiac function improvement effect: Test 3, clinical dose; for Cardiac function improvement effect: summary; for Minimal effective dose (screening 2): mg/kg twice per day, oral preparation
# Procedure: The doses of pharmaceutical products were determined based on the no-observed-adverse-effect levels in a long-term toxicity study using rats. δ-Glycan-deficient spontaneous dilated cardiomyopathy (J2N-k) male hamsters (Japan SLC, Inc.) were delivered at 18 weeks of age. After a 2-week quarantine/acclimation, echocardiography was performed.
# Each of the pharmaceutical products (A to K and O) was individually administered twice daily (at an interval of 8 hours or more) by oral gavage, and echocardiography was performed after 4 and 8 weeks (before dissection). Differences from the value before the start of administration (at the time of grouping) (amount of change: Δ) in each group were examined, and the cardiac function (EF value, FS %, etc.) was compared with that in the vehicle group (Group 1). Moreover, the heart was removed […] after the start of administration, and electron microscopy and RNA protein measurement were performed. Specimens for immunopathology were also collected and evaluated.
# Each pharmaceutical product was individually suspended in 0.5% CMC-Na (sodium carboxymethylcellulose; Wako Pure Chemical Industries, Ltd.) before use, and administered. […] To Group 1 (control), 0.5% CNC-Na (vehicle) was administered.
# Each pharmaceutical product was individually suspended in 0.5% CMC-Na (sodium carboxymethylcellulose; Wako Pure Chemical Industries, Ltd.) before use, and administered. Test substance G was suspended in distilled water before use, and administered.
# Reason the doses were set (assuming that the adult body weight was 60 kg, the same amounts as the maximum clinical doses were set) • 1) The clinical dose of C (ozagrel; OZ) was 200 mg twice per day. The dose was thus set to 3.3 mg/kg twice per day. • 2) The clinical dose of D (cilostazol; CS) was 100 mg twice per day. The dose was thus set to 1.7 mg/kg twice per day. • 3) The clinical dose of E (pirfenidone; PF) was 600 mg three times per day, i.e., 1800 mg/day in total. The dose was thus set to 15 mg/kg twice per day. • 4) The clinical dose of G (nintedanib sulfonate; OB) was 150 mg twice per day. The dose was thus set to 2.5 mg/kg twice per day. • 5) The clinical dose of P (carvedilol; CV) was 10 mg twice per day. The dose was thus set to 0.17 mg/kg twice per day. • 6) Preparation 2 (PLGA⋅MS preparation of camostat; B⋅MS): the clinical dose of active substance camostat was 200 mg three times per day, i.e., 600 mg/day in total; thus, intermittent subcutaneous administration at a daily dose of 10 mg/kg once every 4 weeks, twice in total was set. The dose was 1/28 of the total oral dose amount.
# The dose volume in oral administration was 5 mL/kg (the amount of liquid to be administered to each animal was calculated based on the most recent body weight), and administered by oral gavage using a polypropylene disposable syringe and a rat stomach tube.
# The administration period of each pharmaceutical product was 8 weeks.
# [7] = system: BLM-induced mouse pulmonary fibrosis model; conditions: BLM-induced mouse pulmonary fibrosis model; cited from earlier work
# [8] = system: spontaneous dilated cardiomyopathy J2N-k baby hamsters; test: J2N-k baby hamsters (Test 4): administration alone or in combination, echocardiography, body weight; assay type: in vivo, hamster; conditions: for % FS / EF (%) / value of change in E.F. compared with E.F. at 0 W / value of change in F.S. compared with F.S. at 0 W: Test 4, dose O 0.17, C 3.3, E 15, orally twice daily, mean ± S.D.
# Procedure: δ-Glycan-deficient spontaneous dilated cardiomyopathy (J2N-k) male hamsters (Japan SLC, Inc.) were delivered at 4 weeks of age. After a 1-week quarantine/acclimation, echocardiography was performed. The hamsters were grouped by stratified random assignment based on the EF values and the body weights so that each administration group was equalized.
# Each test substance was individually administered twice daily (at an interval of 8 hours or more) by oral gavage, and echocardiography was performed 4 and 8 weeks after the start of administration (before dissection). Differences from the value before the start of administration (at the time of grouping) (amount of change: A) in each group were examined, and the cardiac function (EF value, FS %, etc.) was compared with that in the vehicle group (Group 1).
# The doses were set according to the dose-setting basis in Test 3, and similarly orally administered twice daily. Effects of administration of combinations of two or three of carvedilol, which is a β-blocker widely used clinically, and ozagrel and/or pirfenidone were examined.
# [9] = Test 1, p.o. b.i.d., NOAEL-based dose
smiles,measurement,setting,value
"O=C1CCc2cc(OCCCCc3nnnn3C3CCCCC3)ccc2N1 [Compound D, Cilostazol]",Action on left ventricular systolic function,[1],suppression action on the deterioration of left ventricular systolic function
same,Cardiac function test (% FS): actual measured EF value compared with control,"[1]; MI Test 1, Day 7",significantly higher
same,Cardiac function test (% FS): amount of change in the EF value compared with control,"[1]; MI Test 1, Day 7",not significantly higher
same,EF actual measured value compared with control,"[1]; MI Test 1, Day 7",significantly higher
same,EF amount of change compared with control,"[1]; MI Test 1, Day 7",not significantly higher
same,Cardiac function test (% FS): amount of change compared with control,"[1]; MI Test 1, Day 29",significantly higher
same,Body weight,[1]; 1 Day (grouping),232.4 ± 4.9 g
same,% FS: value of change compared with the value on Day 1,[1]; 7 Day,-1%
same,EF: value of change compared with the value on Day 1,[1]; 7 Day,-1%
same,% FS: value of change compared with the value on Day 1,[1]; 14 Day,-2%
same,EF: value of change compared with the value on Day 1,[1]; 14 Day,-3%
same,% FS: value of change compared with the value on Day 1,[1]; 29 Day,-5%
same,EF: value of change compared with the value on Day 1,[1]; 29 Day,-9%
same,Diarrhea cases,"[2]; human, in vivo",0.3%
same,Dizziness,"[2]; human, in vivo",0.5%
same,Headache (headache/heavy-headedness) cases,"[2]; human, in vivo",3.4%
same,Nausea cases (cilostazol: nausea/vomiting),"[2]; human, in vivo",0.3%
same,Palpitations cases,"[2]; human, in vivo",0.7%
same,Cases with side effects (including laboratory test value abnormality),[2],6.3%
same,No-observed-adverse-effect level,[3]; 13 weeks / 3 months,30 mg/kg
same,Dose significantly inhibiting pulmonary embolus death,[4]; ADP-induced model,30 mg/kg
same,Dose significantly inhibiting pulmonary embolus death,[4]; collagen-induced model,10 mg/kg
same,Maximum no-observed-adverse-effect level (screening 1),[5],30 mg/kg
same,LVIDd 4 W,"[6]; Test 1, p.o. b.i.d.",7.1 mm
same,LVIDd 8 W,"[6]; Test 1, p.o. b.i.d.",7.5 mm
same,LVIDs 4 W,"[6]; Test 1, p.o. b.i.d.",5.9 mm
same,LVIDs 8 W,"[6]; Test 1, p.o. b.i.d.",6.3 mm
same,Body weight 1 W,[6]; [9],112.6 g
same,Body weight 2 W,[6]; [9],114.6 g
same,Body weight 3 W,[6]; [9],116.6 g
same,Body weight 4 W,[6]; [9],118.0 g
same,Body weight 5 W,[6]; [9],118.5 g
same,"Cardiac function (EF, FS %) actual measured value and/or amount of change compared with control, 8 W value",[6],significant cardiac function improvement effect
same,"Cardiac function (EF, FS %) actual measured value or change rate compared with control, 4 W value",[6],significant cardiac function improvement effect
same,Cardiac function improvement effect,[6],cardiac function improvement effect was observed
same,Minimal effective dose (screening 2),[6],1.7 mg/kg
"Cc1ccc(=O)n(-c2ccccc2)c1 [Compound E, Pirfenidone]",Action on left ventricular systolic function,[1],suppression action on the deterioration of left ventricular systolic function
same,Body weight,[1]; 1 Day (grouping),232.0 ± 3.9 g
same,% FS: value of change compared with the value on Day 1,[1]; 7 Day,0%
same,Body weight,[1]; 7 Day,236.7 ± 5.3 g
same,EF: value of change compared with the value on Day 1,[1]; 7 Day,-1%
same,% FS: value of change compared with the value on Day 1,[1]; 14 Day,-2%
same,Body weight,[1]; 14 Day,257.7 ± 10.1 g
same,EF: value of change compared with the value on Day 1,[1]; 14 Day,-4%
same,Body weight,[1]; 21 Day,272.4 ± 10.5 g
same,% FS: value of change compared with the value on Day 1,[1]; 29 Day,-4%
same,Body weight,[1]; 29 Day,287.5 ± 16.2 g
same,EF: value of change compared with the value on Day 1,[1]; 29 Day,-8%
same,Abdominal / stomach / gastric discomfort cases,"[2]; human, in vivo",14.0%
same,Abnormal fluctuation in laboratory test values,"[2]; human, in vivo",45.3%
same,Anorexia cases,"[2]; human, in vivo",23.0%
same,Light-hypersensitivity cases,"[2]; human, in vivo",51.7%
same,Nausea cases (cilostazol: nausea/vomiting),"[2]; human, in vivo",12.1%
same,γ-GTP elevation cases,"[2]; human, in vivo",20.0%
same,Cases with side effects (including laboratory test value abnormality),[2],87.9%
same,Minimal effective dose for antifibrosis,[7],30 mg/kg/day
same,Body weight 0 W,"[8]; Test 4, at grouping",71.7 g
same,% FS,[8]; 0 W (start of administration),39.0 ± 3.0%
same,EF (%),[8]; 0 W (start of administration),77.1 ± 3.4%
same,% FS,[8]; 4 W,34.1 ± 1.9%
same,EF (%),[8]; 4 W,71.3 ± 2.4%
same,value of change in E.F. compared with E.F. at 0 W,[8]; 4 W,<−5.8 ± 1.9> %
same,value of change in F.S. compared with F.S. at 0 W,[8]; 4 W,<−4.8 ± 1.7> %
same,% FS,[8]; 8 W,29.7 ± 1.8%
same,EF (%),[8]; 8 W,65.2 ± 2.6%
same,value of change in E.F. compared with E.F. at 0 W,[8]; 8 W,<−11.9 ± 2.8> %
same,value of change in F.S. compared with F.S. at 0 W,[8]; 8 W,<−9.2 ± 2.4> %
same,No-observed-adverse-effect level,[3]; 1 month,100 mg/kg
same,Dose at which toxic findings were observed,"[3]; repeated oral administration in rats, duration per compound",≥ 100 mg/kg
same,Maximum no-observed-adverse-effect level (screening 1),[5],50 mg/kg
same,Body weight 0 W,"[6]; Test 1, at grouping",116.1 g
same,LVIDd 4 W,"[6]; Test 1, p.o. b.i.d.",6.9 mm
same,LVIDd 8 W,"[6]; Test 1, p.o. b.i.d.",7.3 mm
same,LVIDs 4 W,"[6]; Test 1, p.o. b.i.d.",5.7 mm
same,LVIDs 8 W,"[6]; Test 1, p.o. b.i.d.",6.1 mm
same,Body weight 1 W,[6]; [9],116.3 g
same,Body weight 2 W,[6]; [9],118.3 g
same,Body weight 3 W,[6]; [9],119.5 g
same,Body weight 4 W,[6]; [9],121.4 g
same,LVIDs 8 W,"[6]; Test 1, p.o. b.i.d., listed as pirfenidone",significantly lower
same,"Cardiac function (EF, FS %) actual measured value and/or amount of change compared with control, 8 W value",[6],significant cardiac function improvement effect
same,"Cardiac function (EF, FS %) actual measured value or change rate compared with control, 4 W value",[6],significant cardiac function improvement effect
same,Cardiac function improvement effect,[6],cardiac function improvement effect was observed
same,Minimal effective dose (screening 2),[6],15 mg/kg
